Measurements taken from the supplement of paper PMC10307832.

Legend:
Experiment in all cases: relative viability (nuclei count vs DMSO), 5 days (fraction); higher = more cells survive
BX 795 + Pemetrexed = compound: O=C(NCCCNc1nc(Nc2cccc(NC(=O)N3CCCC3)c2)ncc1I)c1cccs1 [BX 795] + Nc1nc2[nH]cc(CCc3ccc(C(=O)N[C@@H](CCC(=O)O)C(=O)O)cc3)c2c(=O)[nH]1 [Pemetrexed] (partner 0.2 µM)
Procedure, shortened: (§1)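 Relative viability was taken as the ratio of nuclei in treated wells to nuclei in vehicle wells. Lung cancer cell lines in 1536-well plates received compounds by pin tool one day after seeding, either one drug alone or a fixed anchor-drug dose plus five library-drug doses (not always all listed) in √10 steps. Nuclei were counted on 4× images after 5 days of treatment, and values are medians of duplicate plates.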

BX 795 + Bortezomib = compound: O=C(NCCCNc1nc(Nc2cccc(NC(=O)N3CCCC3)c2)ncc1I)c1cccs1 [BX 795] + CC(C)C[C@H](NC(=O)[C@H](Cc1ccccc1)NC(=O)c1cnccn1)B(O)O [Bortezomib] (partner 0.002 µM)
Procedure, shortened: as §1

BX 795 + Tozasertib = compound: O=C(NCCCNc1nc(Nc2cccc(NC(=O)N3CCCC3)c2)ncc1I)c1cccs1 [BX 795] + Cc1cc(Nc2cc(N3CCN(C)CC3)nc(Sc3ccc(NC(=O)C4CC4)cc3)n2)n[nH]1 [Tozasertib] (partner 0.1 µM)
Procedure, shortened: as §1

BX 795 + Foretinib = compound: O=C(NCCCNc1nc(Nc2cccc(NC(=O)N3CCCC3)c2)ncc1I)c1cccs1 [BX 795] + COc1cc2c(Oc3ccc(NC(=O)C4(C(=O)Nc5ccc(F)cc5)CC4)cc3F)ccnc2cc1OCCCN1CCOCC1 [Foretinib] (partner 0.25 µM)
Procedure, shortened: as §1

BX 795 + Trametinib = compound: O=C(NCCCNc1nc(Nc2cccc(NC(=O)N3CCCC3)c2)ncc1I)c1cccs1 [BX 795] + CC(=O)Nc1cccc(-n2c(=O)n(C3CC3)c(=O)c3c(Nc4ccc(I)cc4F)n(C)c(=O)c(C)c32)c1 [Trametinib] (partner 0.02 µM)
Procedure, shortened: as §1

Cell Line	relative viability (BX 795 + Pemetrexed; first compound 0.04 µM)	relative viability (BX 795 + Pemetrexed; first compound 0.1265 µM)	relative viability (BX 795 + Pemetrexed; first compound 0.4 µM)	relative viability (BX 795 + Pemetrexed; first compound 1.265 µM)	relative viability (BX 795 + Bortezomib; first compound 0.04 µM)	relative viability (BX 795 + Bortezomib; first compound 0.1265 µM)	relative viability (BX 795 + Bortezomib; first compound 0.4 µM)	relative viability (BX 795 + Bortezomib; first compound 1.265 µM)	relative viability (BX 795 + Tozasertib; first compound 0.04 µM)	relative viability (BX 795 + Tozasertib; first compound 0.1265 µM)	relative viability (BX 795 + Tozasertib; first compound 0.4 µM)	relative viability (BX 795 + Tozasertib; first compound 1.265 µM)	relative viability (BX 795 + Foretinib; first compound 0.04 µM)	relative viability (BX 795 + Foretinib; first compound 0.1265 µM)	relative viability (BX 795 + Foretinib; first compound 0.4 µM)	relative viability (BX 795 + Foretinib; first compound 1.265 µM)	relative viability (BX 795 + Trametinib; first compound 0.04 µM)	relative viability (BX 795 + Trametinib; first compound 0.1265 µM)	relative viability (BX 795 + Trametinib; first compound 0.4 µM)	relative viability (BX 795 + Trametinib; first compound 1.265 µM)
NCI-H2126	0.713	0.692	0.457	0.666	1.08	1.07	1.21	1.07	0.85	0.883	0.831	0.758	1.31	1.02	1.3	1.03	0.611	0.537	0.685	0.534
A-427	1.02	0.925	1.08	0.849	0.972	0.964	1.02	0.866	0.227	0.148	0.179	0.136	0.98	1.12	1.07	0.897	0.757	0.733	0.72	0.625
SW 1573	0.748	0.81	0.836	0.516	1.11	1.21	1.29	0.877	0.209	0.185	0.142	0.155	0.916	0.844	0.971	0.777	0.725	0.642	0.753	0.232
NCI-H650	0.889	1.04	0.866	0.809	0.792	0.761	1.06	0.432	0.864	0.769	0.583	0.488	1.06	0.935	0.927	0.911	1.05	0.999	0.986	0.928
ChaGo-K-1	0.243	0.258	0.254	0.258	1.02	0.916	0.977	0.91	0.175	0.226	0.205	0.212	0.993	0.89	0.982	0.767	0.924	0.907	0.885	0.75
LXF-289	0.898	0.832	0.894	0.831	0.981	1	0.977	0.967	0.209	0.155	0.154	0.142	0.963	0.908	1.02	0.9	0.523	0.67	0.725	0.631
EMC-BAC-2	0.383	0.446	0.428	0.454	1.08	1.08	1.13	1.06	0.277	0.362	0.258	0.175	1.01	1.12	0.914	0.322	0.943	0.921	0.868	0.749
NCI-H1755	0.42	0.44	0.381	0.447	1.01	0.963	1.05	0.758	0.681	0.481	0.553	0.508	0.926	0.865	0.894	0.67	0.849	0.763	0.793	0.665
NCI-H2085	0.848	0.865	0.919	0.899	1.04	0.98	1.02	0.999	0.797	0.84	0.771	0.66	1.05	1.05	0.873	0.809	0.645	0.512	0.669	0.484
NCI-H838	0.254	0.249	0.189	0.184	0.841	0.792	0.719	0.401	0.236	0.303	0.272	0.22	0.952	0.924	0.917	0.413	0.5	0.473	0.397	0.302
LU99A	0.148	0.197	0.128	0.209	1.23	1.02	0.8	0.773	0.3	0.286	0.287	0.261	0.808	0.901	0.793	0.602	0.558	0.484	0.41	0.278
NCI-H2228	0.329	0.331	0.268	0.281	1.03	1.11	0.907	0.308	0.283	0.247	0.303	0.217	1.05	0.967	1.13	0.625	0.689	0.713	0.389	0.349
NCI-H3122	0.172	0.207	0.141	0.182	1.02	1.04	1.04	0.986	0.387	0.415	0.323	0.356	1.01	1.04	1	0.992	0.216	0.312	0.248	0.26
NCI-H1650	0.392	0.431	0.243	0.416	0.219	0.2	0.189	0.193	0.548	0.425	0.377	0.25	1.24	1.06	0.668	0.792	0.6	0.493	0.551	0.504
NCI-H1734	0.348	0.421	0.33	0.398	0.965	1.03	0.914	0.545	0.243	0.23	0.238	0.216	0.836	0.982	0.83	0.456	0.714	0.651	0.69	0.562
